Test results: patent publication US20130196984A1, “3-AMINO-5-PHENYL-56-DIHYDRO-2H-[1,4]OXAZINES” (Siena Biotech S.p.A., priority 2009, published 2013)
pIC50, pKd: −log10 of the molar value. Where a name gives a salt, the structure may show the parent alone.

Legend:
[1] = target: T1, BACE1 (Homo sapiens, UniProt P56817); experiment: Cellular Abeta-lowering assay; format: cell-based; set-up: endogenous in cells; host or cells: HEK293 stably transfected with human APP695 wt; details: HEK293 cells stably transfected with human APP wt (APP695), Aβ40 ELISA of supernatant after 18-20 hrs
[2] = target: T2, BACE2 (Rattus norvegicus, UniProt Q6IE75); experiment: Assay for BACE inhibition by measuring cellular TMEM27 cleavage; format: cell-based; details: INS-TMEM27 (INS1e-derived) cells, ELISA of shed human TMEM27 in supernatant;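 also: inhibitor added 2 h before doxycycline-induced hTMEM27 expression, supernatant collected after further 46 h, endogenous BACE2 activity read as reduced TMEM27 shedding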
T2 construct: endogenous cellular BACE2 in the Ins1e rat cell line; endogenous in cells; host or cells: INS-TMEM27 (INS1e-derived rat cell line with doxycycline-inducible full-length hTMEM27)
T2 sequence (Q6IE75 63-514): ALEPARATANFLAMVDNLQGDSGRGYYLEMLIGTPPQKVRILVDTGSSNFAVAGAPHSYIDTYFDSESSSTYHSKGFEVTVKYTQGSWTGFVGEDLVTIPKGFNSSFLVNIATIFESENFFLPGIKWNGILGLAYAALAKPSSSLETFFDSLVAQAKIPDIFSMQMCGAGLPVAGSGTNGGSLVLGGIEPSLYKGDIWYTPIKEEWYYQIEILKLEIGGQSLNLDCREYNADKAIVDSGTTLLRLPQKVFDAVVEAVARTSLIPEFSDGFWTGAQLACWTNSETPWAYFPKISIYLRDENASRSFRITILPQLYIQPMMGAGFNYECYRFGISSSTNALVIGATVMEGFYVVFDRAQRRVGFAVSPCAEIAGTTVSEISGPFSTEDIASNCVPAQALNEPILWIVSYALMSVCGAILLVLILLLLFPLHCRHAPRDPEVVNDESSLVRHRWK

[3] = target: T1, BACE1; experiment: Assay A: binding studies using SPR based methods, immobilised BACE1; set-up: 6his-tagged full length BACE 1 expressed in SF9 cells; 6His; made in house; host or cells: SF9 insect cells; details: CM5 chip, immobilised 6his-tagged full length BACE 1, acetate buffer pH 4.6, 4% DMSO;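 also: KD from a 1:1 kinetic fit (koff/kon) of real-time association and dissociation curves, or for fast binders from end-of-association equilibrium responses plotted against log concentration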
[4] = target: T3, BACE2 (Homo sapiens, UniProt Q9Y5Z0); experiment: Assay A: binding studies using SPR based methods, immobilised BACE2; details: CM5 chip, immobilised BACE2 enzyme ectodomain, acetate buffer pH 4.6, 4% DMSO
T3 construct: BACE2 enzyme ectodomain (derived from plasmid “pET17b-T7-hu proBACE2”); T7 (N); made in house
T3 sequence (Q9Y5Z0 63-473 limits assumed): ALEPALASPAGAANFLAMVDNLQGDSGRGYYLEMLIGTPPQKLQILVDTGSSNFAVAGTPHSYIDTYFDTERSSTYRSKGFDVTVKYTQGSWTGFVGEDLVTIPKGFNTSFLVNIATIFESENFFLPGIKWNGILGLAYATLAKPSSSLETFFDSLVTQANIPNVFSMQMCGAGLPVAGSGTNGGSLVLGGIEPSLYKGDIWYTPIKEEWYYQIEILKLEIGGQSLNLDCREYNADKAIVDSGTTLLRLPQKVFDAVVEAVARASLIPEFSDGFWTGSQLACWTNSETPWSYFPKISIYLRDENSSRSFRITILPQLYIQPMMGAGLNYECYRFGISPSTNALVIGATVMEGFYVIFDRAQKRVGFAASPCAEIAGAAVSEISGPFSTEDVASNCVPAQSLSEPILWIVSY

T1 sequence (P56817 46-501): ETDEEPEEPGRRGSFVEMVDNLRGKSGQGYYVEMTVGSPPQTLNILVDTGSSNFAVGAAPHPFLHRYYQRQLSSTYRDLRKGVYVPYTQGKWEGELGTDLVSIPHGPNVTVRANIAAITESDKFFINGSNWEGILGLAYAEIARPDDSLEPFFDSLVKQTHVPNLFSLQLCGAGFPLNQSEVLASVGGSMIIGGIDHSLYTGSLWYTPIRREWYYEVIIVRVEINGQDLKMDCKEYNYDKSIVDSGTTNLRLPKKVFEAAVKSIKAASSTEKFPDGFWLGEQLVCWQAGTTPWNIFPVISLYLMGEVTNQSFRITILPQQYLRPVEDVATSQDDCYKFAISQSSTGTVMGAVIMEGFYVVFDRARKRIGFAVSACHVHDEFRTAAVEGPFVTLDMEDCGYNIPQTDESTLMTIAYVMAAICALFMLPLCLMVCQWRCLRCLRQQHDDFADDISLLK

| SMILES | pIC50 [1] | pIC50 [2] | pKd [3] | pKd [4] |
| --- | --- | --- | --- | --- |
| C[C@@]1(c2cc(NC(=O)c3ncoc3-c3ccccc3)ccc2F)COCC(N)=N1 [Example 45, 5-phenyl-oxazole-4-carboxylic acid [3-((R)-5-amino-3-methyl-3,6-dihydro-2H-[1,4]oxazin-3-yl)-4-fluoro-phenyl]-amide] | 6.12 | 6.21 | 5.40 | 5.52 |
| C[C@@]1(c2cc(NC(=O)c3ccc(OC(F)F)cn3)ccc2F)COCC(N)=N1 [Example 73, 5-difluoromethoxy-pyridine-2-carboxylic acid [3-((R)-5-amino-3-methyl-3,6-dihydro-2H-[1,4]oxazin-3-yl)-4-fluoro-phenyl]-amide hydrochloride] | 8.40 | 6.98 | 8.05 | 7.29 |
| C[C@@]1(c2cc(NC(=O)c3ncc(Cl)cn3)ccc2F)COCC(N)=N1 [Example 35, 5-chloro-pyrimidine-2-carboxylic acid [3-((R)-5-amino-3-methyl-3,6-dihydro-2H-[1,4]oxazin-3-yl)-4-fluoro-phenyl]-amide] | 7.82 | 7.80 | 7.55 | 8.40 |
| CC1(c2cccc(NC(=O)c3ncc(Cl)cc3Cl)c2)COCC(N)=N1 (racemic) [Example 2, (RS)-3,5-dichloro-pyridine-2-carboxylic acid [3-(5-amino-3-methyl-3,6-dihydro-2H-[1,4]oxazin-3-yl)-phenyl]-amide] | 7.80 | 7.32 | 7.30 | 8.05 |
| COCC(=O)Nc1ccc(F)c([C@]2(C)COCC(N)=N2)c1 [Example 84, N-[3-((R)-5-amino-3-methyl-3,6-dihydro-2H-[1,4]oxazin-3-yl)-4-fluoro-phenyl]-2-methoxy-acetamide formate] | 6.85 | 7.08 | 6.58 | 7.11 |
| CC(C)(F)C(=O)Nc1ccc(F)c([C@]2(C)COCC(N)=N2)c1 [Example 92, N-[3-((R)-5-amino-3-methyl-3,6-dihydro-2H-[1,4]oxazin-3-yl)-4-fluoro-phenyl]-2-fluoro-2-methyl-propionamide formate] | 6.40 | 5.96 | 5.65 | 5.97 |
| CC1(c2cc(NC(=O)c3ccc(Cl)cc3)ccc2F)COCC(N)=N1 (racemic) [Example 19, (RS)—N-[3-(5-amino-3-methyl-3,6-dihydro-2H-[1,4]oxazin-3-yl)-4-fluoro-phenyl]-4-chloro-benzamide] | 6.89 | 6.08 | 6.40 | 7.01 |
| Cc1ccsc1C(=O)Nc1ccc(F)c([C@]2(C)COCC(N)=N2)c1 [Example 44, 3-methyl-thiophene-2-carboxylic acid [3-((R)-5-amino-3-methyl-3,6-dihydro-2H-[1,4]oxazin-3-yl)-4-fluoro-phenyl]-amide] | 6.33 | 6.51 | 5.74 | 7.37 |
| CC(=O)Nc1ccc(F)c([C@]2(C)COCC(N)=N2)c1 [Example 93, N-[3-((R)-5-amino-3-methyl-3,6-dihydro-2H-[1,4]oxazin-3-yl)-4-fluoro-phenyl]-acetamide formate] | 5.17 | 5.47 | < 5.00 | 5.41 |
| CC1(C)OCC(N)=N[C@]1(C)c1cc(NC(=O)c2ccc(Cl)cn2)ccc1F [Example 49, 5-chloro-pyridine-2-carboxylic acid [3-((R)-5-amino-2,2,3-trimethyl-3,6-dihydro-2H-[1,4]oxazin-3-yl)-4-fluoro-phenyl]-amide] | 8.40 | 7.18 | 7.82 | 7.66 |
| C[C@@]1(c2cc(NC(=O)C(F)(F)C(F)F)ccc2F)COCC(N)=N1 [Example 83, N-[3-((R)-5-amino-3-methyl-3,6-dihydro-2H-[1,4]oxazin-3-yl)-4-fluoro-phenyl]-2,2,3,3-tetrafluoro-propionamide formate] | 6.52 | 6.89 | 6.04 | 6.56 |
| CC1(C)OCC(N)=N[C@]1(C)c1cc(NC(=O)C2CC2(F)F)ccc1F (mixture of isomers) [Example 56, (RS)-2,2-difluoro-cyclopropanecarboxylic [3-((R)-5-amino-2,2,3-trimethyl-3,6-dihydro-2H-[1,4]oxazin-3-yl)-4-fluoro-phenyl]-amide] | 5.92 | < 5.00 | 4.96 | 5.76 |
| C[C@@]1(c2cc(NC(=O)c3cnc(C(F)(F)F)cn3)ccc2F)COCC(N)=N1 [Example 82, 5-trifluoromethyl-pyrazine-2-carboxylic acid [3-((R)-5-amino-3-methyl-3,6-dihydro-2H-[1,4]oxazin-3-yl)-4-fluoro-phenyl]-amide formate] | 7.34 | 6.85 | 6.89 | 6.95 |
| Cc1nc(C(=O)Nc2ccc(F)c([C@]3(C)COCC(N)=N3)c2)co1 [Example 39, 2-methyl-oxazole-4-carboxylic acid [3-((R)-5-amino-3-methyl-3,6-dihydro-2H-[1,4]oxazin-3-yl)-4-fluoro-phenyl]-amide] | 7.55 | 6.89 | 7.35 | 8.10 |
| Cn1cc(Cl)c(C(=O)Nc2ccc(F)c([C@]3(C)COCC(N)=N3)c2)n1 [Example 43, 4-chloro-1-methyl-1H-pyrazole-3-carboxylic acid [3-((R)-5-amino-3-methyl-3,6-dihydro-2H-[1,4]oxazin-3-yl)-4-fluoro-phenyl]-amide] | 7.10 | 7.89 | 7.07 | 8.30 |
| C[C@@]1(c2cc(NC(=O)c3ncc(Cl)cc3F)ccc2F)COCC(N)=N1 [Example 74, 5-Chloro-3-fluoro-pyridine-2-carboxylic acid [3-((R)-5-amino-3-methyl-3,6-dihydro-2H-[1,4]oxazin-3-yl)-4-fluoro-phenyl]-amide hydrochloride] | 8.40 | 5.87 | 8.00 | 8.70 |
| CC1(C)OC[C@@](C)(c2cccc(NC(=O)c3ccc(Cl)cn3)c2)N=C1N [Example 51, 5-chloro-pyridine-2-carboxylic acid [3-((R)-5-amino-3,6,6-trimethyl-3,6-dihydro-2H-[1,4]oxazin-3-yl)-phenyl]-amide] | 7.85 | 8.30 | 7.66 | 8.70 |
| CC(F)C(=O)Nc1ccc(F)c([C@]2(C)COCC(N)=N2)c1 (mixture of isomers) [Example 87, (RS)—N-[3-((R)-5-amino-3-methyl-3,6-dihydro-2H-[1,4]oxazin-3-yl)-4-fluoro-phenyl]-2-fluoro-propionamide formate] | 6.92 | 7.28 | 6.32 | 6.32 |
| C[C@@]1(c2cc(NC(=O)c3coc(C(F)(F)F)c3)ccc2F)COCC(N)=N1 [Example 36, 5-trifluoromethyl-furan-3-carboxylic acid [3-((R)-5-amino-3-methyl-3,6-dihydro-2H-[1,4]oxazin-3-yl)-4-fluoro-phenyl]-amide] | 6.26 | 6.92 | 5.64 | 6.02 |
| CC1(c2cccc(NC(=O)c3ccc(Cl)cc3Cl)c2)COCC(N)=N1 (racemic) [Example 4, (RS)—N-[3-(5-amino-3-methyl-3,6-dihydro-2H-[1,4]oxazin-3-yl)-phenyl]-2,4-dichloro-benzamide] | 6.24 | 6.02 | 5.77 | 6.42 |
| C[C@@]1(c2cc(NC(=O)c3ccn(C(F)F)n3)ccc2F)COCC(N)=N1 [Example 40, 1-difluoromethyl-1H-pyrazole-3-carboxylic acid [3-((R)-5-amino-3-methyl-3,6-dihydro-2H-[1,4]oxazin-3-yl)-4-fluoro-phenyl]-amide] | 7.89 | 8.70 | 7.82 | 8.70 |
